# Measured values: USRE35748E, “Treatments employing drug containing matrices for introduction into cellular lesion areas” (priority 1995, dated 1998)
# Structures can show the parent of a compound that is named as a salt.
# Experiments:
# [1] = test system: white blood cells; experiment: White blood cell count in treated tumor-bearing mice; assay type: in vivo, C3H/He mice; settings: 5-FU 100 mg/kg, day 4 post-treatment, mean ± S.E. (Table 3)
# Description: the tail of treatment mice.
# (§1) Otherwise, the procedure was the same. The following Table 5 indicates the results.
# (§2) The following Table 6 provides the results.
# [2] = test system: skin overlying the tumor; experiment: Skin reaction of skin overlying the tumor; assay type: in vivo, C3H/He mice
# Description: The skin reaction is scored as follows:
# 1 = superficial inflammation;
# post injection. The skin reaction is scored as follows:
# as §1, §2
# [3] = Acute animal toxicity / survival; settings: for Animal Survival: ADM 15 mg/kg, deaths usually within 2 days
# Method: The adriamycin in distilled water (4.45 mg/ml) was mixed with 36 mg/ml bovine collagen (BC) 1:1 to yield a composition ratio of 2.25 mg adriamycin:18 mg BC/ml.
SMILES,White Blood Cells/mm^3 ([1]; i.p.),White Blood Cells/mm^3 ([1]; i.t. (EPI 5 mg/kg where present)),"Skin Reaction ([2]; 5-FU 75 mg/Kg, i.p., 5 min before X-rays (1000 rad), score 0-3 (Table 9))","Skin Reaction ([2]; 5-FU 75 mg/Kg, i.p., no X-rays, score 0-3 (Table 9))","Skin Reaction ([2]; 5-FU 100 mg/kg, i.t. (EPI 5 mg/kg where present), Day 8, score 0 = no effect, 1 = superficial inflammation, 2 = scab, 3 = ulcer (Table 3))","Skin Reaction ([2]; ADM 15 mg/kg, i.t., Day 8, score 0 = no effect, 1 = superficial inflammation, 2 = scab, 3 = ulcer)","toxicity ([3]; 15 mg/kg, intratumoral injection)",Animal Survival ([3]; i.p.),Animal Survival ([3]; i.t.)
"O=c1[nH]cc(F)c(=O)[nH]1 [5-FU, 5-fluorouracil]",4.5 ± 0.6 Cells/mm^3 (×10^3),3.5 ± 0.5 Cells/mm^3 (×10^3),2,2,0,–,–,–,–
"COc1cccc2c1C(=O)c1c(O)c3c(c(O)c1C2=O)C[C@@](O)(C(=O)CO)C[C@@H]3O[C@H]1C[C@H](N)[C@H](O)[C@H](C)O1 [Free ADM, doxorubicin-HCl]",–,–,–,–,–,2.0,non-toxic,25%,100%
